These are literature values, as cited in patent publication US20180280562A1, “Fibrous Structures Comprising Sensates” (The Procter & Gamble Company, priority 2017, published 2018).

The conditions of this data set: concentration where the cooling effect could be clearly recognized.

Regarding `CC(C)[C@@H]1CC[C@@H](C)C[C@@H]1O` [1-neomenthol], the cooling threshold result is reported as “about 3,000 ppb”.

Take `CC(C)[C@@H]1CC[C@@H](C)C[C@H]1O` [L-menthol]: the cooling threshold entry is “about 800 ppb”.

For `CC(C)[C@@H]1CC[C@@H](C)C[C@@H]1O` [d-neomenthol], the cooling threshold entry is on record as “about 25,000 ppb”.
